From ChEMBL document CHEMBL5042530, “Discovery of Novel Pyridine-Dimethyl-Phenyl-DAPY Hybrids by Molecular Fusing of Methyl-Pyrimidine-DAPYs and Difluoro-Pyridinyl-DAPYs: Improving the Druggability toward High Inhibitory Activity, Solubility, Safety, and PK” (J Med Chem, 2022)

Legend:
[1] = tested on: Human immunodeficiency virus 1; experiment: Antiviral activity against wild type HIV-1 IIIB infected in human MT4 cells assessed as protection against virus-induced cytotoxicity incubated for 5 days by MTT assay; assay type: functional, organism-based; details: Human immunodeficiency virus 1, IIIB, MT4, 120 h
[2] = Cytotoxicity against human MT4 cells assessed as reduction in cell viability measured after 5 days by MTT assay; assay type: toxicity, cell-based; details: time 5 day
[3] = Selectivity index, ratio of CC50 for cytotoxicity against human MT4 cells to EC50 for antiviral activity against HIV-1 IIIB infected in human MT4 cells; assay type: toxicity, cell-based; details: read-out: Ratio CC50/EC50
[4] = tested on: Human immunodeficiency virus 1; experiment: Antiviral activity against HIV-1 harboring RT L100I mutant infected in human MT4 cells assessed as protection against virus-induced cytotoxicity incubated for 5 days by MTT assay; assay type: functional, organism-based; details: Human immunodeficiency virus 1, MT4, 120 h
[5] = tested on: Human immunodeficiency virus 1; experiment: Antiviral activity against HIV-1 harboring K103N mutant infected in human MT4 cells assessed as protection against virus-induced cytotoxicity incubated for 5 days by MTT assay; assay type: functional, organism-based; details: Human immunodeficiency virus 1, MT4, 120 h
[6] = tested on: Human immunodeficiency virus 1; experiment: Antiviral activity against HIV-1 harboring Y181C mutant infected in human MT4 cells assessed as protection against virus-induced cytotoxicity incubated for 5 days by MTT assay; assay type: functional, organism-based; details: Human immunodeficiency virus 1, MT4, 120 h
[7] = tested on: Human immunodeficiency virus 1; experiment: Antiviral activity against HIV-1 harboring Y188L mutant infected in human MT4 cells assessed as protection against virus-induced cytotoxicity incubated for 5 days by MTT assay; assay type: functional, organism-based; details: Human immunodeficiency virus 1, MT4, 120 h
[8] = tested on: Human immunodeficiency virus 1; experiment: Antiviral activity against HIV-1 harboring E138K mutant infected in human MT4 cells assessed as protection against virus-induced cytotoxicity incubated for 5 days by MTT assay; assay type: functional, organism-based; details: Human immunodeficiency virus 1, MT4, 120 h
[9] = tested on: Human immunodeficiency virus 1; experiment: Antiviral activity against HIV-1 harboring F227L/V106A double mutant infected in human MT4 cells assessed as protection against virus-induced cytotoxicity incubated for 5 days by MTT assay; assay type: functional, organism-based; details: Human immunodeficiency virus 1, MT4, 120 h
[10] = tested on: Human immunodeficiency virus 1; experiment: Antiviral activity against HIV-1 harboring RES056 mutant infected in human MT4 cells assessed as protection against virus-induced cytotoxicity incubated for 5 days by MTT assay; assay type: functional, organism-based; details: Human immunodeficiency virus 1, MT4, 120 h
[11] = molecular target: Human immunodeficiency virus type 1 reverse transcriptase (Human immunodeficiency virus 1, UniProt Q72547); experiment: Inhibition of recombinant wild type p66/p51 HIV1 reverse transcriptase incubated for 40 mins by picogreen dye-based spectrofluorometric analysis
[12] = Aqueous solubility of the compound in PBS buffer at pH 2 measured after 24 hrs by HPLC-UV analysis; assay type: physicochemical
[13] = Aqueous solubility of the compound in PBS buffer at pH 7 measured after 24 hrs by HPLC-UV analysis; assay type: physicochemical
[14] = Aqueous solubility of the compound in PBS buffer at pH 7.4 measured after 24 hrs by HPLC-UV analysis; assay type: physicochemical
Cytochrome P450 1A2 = molecular target: T1, Cytochrome P450 1A2 (Homo sapiens, UniProt P05177); experiment: Inhibition of CYP1A2 in human liver microsomes using phenacetin as substrate incubated for 15 to 45 mins in presence of NADPH; assay type: ADME
T1 sequence (P05177 whole entry): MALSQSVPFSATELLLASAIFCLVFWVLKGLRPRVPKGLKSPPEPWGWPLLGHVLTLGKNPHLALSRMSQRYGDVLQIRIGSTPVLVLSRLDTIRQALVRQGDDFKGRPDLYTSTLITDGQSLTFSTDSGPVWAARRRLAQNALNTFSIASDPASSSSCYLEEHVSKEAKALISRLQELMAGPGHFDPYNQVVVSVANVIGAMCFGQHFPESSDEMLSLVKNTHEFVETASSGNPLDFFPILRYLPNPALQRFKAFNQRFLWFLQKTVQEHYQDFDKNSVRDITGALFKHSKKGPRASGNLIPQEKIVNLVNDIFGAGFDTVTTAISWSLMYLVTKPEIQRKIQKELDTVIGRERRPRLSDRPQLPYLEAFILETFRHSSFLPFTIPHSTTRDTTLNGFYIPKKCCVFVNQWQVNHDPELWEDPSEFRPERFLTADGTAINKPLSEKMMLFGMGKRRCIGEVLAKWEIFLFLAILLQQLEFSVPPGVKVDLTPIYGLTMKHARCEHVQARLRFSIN

Cytochrome P450 2C9 = Cytochrome P450 2C9 (Homo sapiens, UniProt P11712); experiment: Inhibition of CYP2C9 in human liver microsomes using tolbutamide as substrate incubated for 15 to 45 mins in presence of NADPH
Cytochrome P450 2C9, sequence (P11712 whole entry): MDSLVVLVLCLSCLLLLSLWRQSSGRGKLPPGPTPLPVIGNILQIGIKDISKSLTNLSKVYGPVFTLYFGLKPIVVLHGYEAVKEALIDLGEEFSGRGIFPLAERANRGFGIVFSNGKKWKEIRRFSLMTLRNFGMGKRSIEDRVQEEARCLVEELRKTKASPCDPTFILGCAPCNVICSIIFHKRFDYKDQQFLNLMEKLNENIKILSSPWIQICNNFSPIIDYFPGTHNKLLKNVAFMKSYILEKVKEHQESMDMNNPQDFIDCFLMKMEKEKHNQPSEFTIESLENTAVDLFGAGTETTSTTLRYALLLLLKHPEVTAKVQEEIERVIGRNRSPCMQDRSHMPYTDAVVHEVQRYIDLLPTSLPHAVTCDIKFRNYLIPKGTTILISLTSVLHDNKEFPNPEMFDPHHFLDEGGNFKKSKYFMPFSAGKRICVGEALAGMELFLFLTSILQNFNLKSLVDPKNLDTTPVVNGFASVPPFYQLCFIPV

Cytochrome P450 2C19 = Cytochrome P450 2C19 (Homo sapiens, UniProt P33261); experiment: Inhibition of CYP2C19 in human liver microsomes using S-mephenytoin as substrate incubated for 15 to 45 mins in presence of NADPH; assay type: ADME
Cytochrome P450 2C19, sequence (P33261 whole entry): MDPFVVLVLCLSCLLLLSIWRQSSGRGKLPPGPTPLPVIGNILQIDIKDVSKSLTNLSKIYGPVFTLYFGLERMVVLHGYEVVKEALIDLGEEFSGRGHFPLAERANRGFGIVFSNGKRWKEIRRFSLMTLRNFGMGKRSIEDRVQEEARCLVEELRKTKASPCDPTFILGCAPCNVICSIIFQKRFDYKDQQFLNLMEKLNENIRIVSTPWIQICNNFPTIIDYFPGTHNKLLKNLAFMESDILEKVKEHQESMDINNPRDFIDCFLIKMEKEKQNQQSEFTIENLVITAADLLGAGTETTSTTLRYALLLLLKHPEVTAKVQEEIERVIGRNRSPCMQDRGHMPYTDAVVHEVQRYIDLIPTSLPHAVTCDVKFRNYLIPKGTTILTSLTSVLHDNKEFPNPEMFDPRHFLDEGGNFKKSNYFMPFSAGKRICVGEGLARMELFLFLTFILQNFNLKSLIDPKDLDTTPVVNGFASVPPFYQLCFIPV

Cytochrome P450 2D6 = Cytochrome P450 2D6 (Homo sapiens, UniProt P10635); experiment: Inhibition of CYP2D6 in human liver microsomes using dextromethorphan as substrate incubated for 15 to 45 mins in presence of NADPH; assay type: ADME
Cytochrome P450 2D6, sequence (P10635 whole entry): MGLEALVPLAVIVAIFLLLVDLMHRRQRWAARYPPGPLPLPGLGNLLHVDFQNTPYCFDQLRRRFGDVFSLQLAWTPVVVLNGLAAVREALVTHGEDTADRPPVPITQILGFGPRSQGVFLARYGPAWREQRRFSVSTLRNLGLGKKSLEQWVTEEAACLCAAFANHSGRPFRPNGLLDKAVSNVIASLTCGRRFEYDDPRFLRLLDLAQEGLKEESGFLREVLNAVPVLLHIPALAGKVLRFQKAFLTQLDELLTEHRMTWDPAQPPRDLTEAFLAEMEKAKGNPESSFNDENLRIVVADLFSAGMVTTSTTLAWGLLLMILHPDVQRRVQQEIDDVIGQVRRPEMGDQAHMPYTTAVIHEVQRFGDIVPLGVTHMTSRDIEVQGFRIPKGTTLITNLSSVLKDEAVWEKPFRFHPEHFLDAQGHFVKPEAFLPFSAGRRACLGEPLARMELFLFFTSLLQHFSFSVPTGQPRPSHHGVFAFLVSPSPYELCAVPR

[15] = Inhibition of CYP3A4T in human liver microsomes using testosterone as substrate incubated for 15 to 45 mins in presence of NADPH; assay type: ADME
[16] = Inhibition of CYP3A4M in human liver microsomes using midazolam as substrate incubated for 15 to 45 mins in presence of NADPH; assay type: ADME
[17] = AUC (0 to last) in Sprague-Dawley rat at 5 mg/kg, po administered via gavage measured up to 24 hrs by LCMS analysis; assay type: ADME, organism-based; parameters: route oral, dose 5 mg/kg, time <=24; details: in vivo
[18] = AUC (0 to last) in Sprague-Dawley rat at 1 mg/kg, iv measured up to 24 hrs by LCMS analysis; assay type: ADME, organism-based; parameters: route intravenous, dose 1 mg/kg, time <=24; details: in vivo
[19] = AUCinfinity in Sprague-Dawley rat at 5 mg/kg, po administered via gavage measured up to 24 hrs by LCMS analysis; assay type: ADME, organism-based; parameters: route oral, dose 5 mg/kg, time <=24; details: in vivo
[20] = AUCinfinity in Sprague-Dawley rat at 1 mg/kg, iv measured up to 24 hrs by LCMS analysis; assay type: ADME, organism-based; parameters: route intravenous, dose 1 mg/kg, time <=24; details: in vivo
[21] = MRTinfinity in Sprague-Dawley rat at 5 mg/kg, po administered via gavage measured up to 24 hrs by LCMS analysis; assay type: ADME, organism-based; details: in vivo
[22] = MRTinfinity in Sprague-Dawley rat at 1 mg/kg, iv measured up to 24 hrs by LCMS analysis; assay type: ADME, organism-based; details: in vivo
[23] = Half life in Sprague-Dawley rat at 5 mg/kg, po administered via gavage measured up to 24 hrs by LCMS analysis; assay type: ADME, organism-based; details: in vivo
[24] = Half life in Sprague-Dawley rat at 1 mg/kg, iv measured up to 24 hrs by LCMS analysis; assay type: ADME, organism-based; details: in vivo
[25] = Tmax in Sprague-Dawley rat at 5 mg/kg, po administered via gavage measured up to 24 hrs by LCMS analysis; assay type: ADME, organism-based; details: in vivo
[26] = Cmax in Sprague-Dawley rat at 5 mg/kg, po administered via gavage measured up to 24 hrs by LCMS analysis; assay type: ADME, organism-based; parameters: route oral, dose 5 mg/kg, time <=24; details: in vivo
[27] = Oral bioavailability in Sprague-Dawley rat at 5 mg/kg administered via gavage measured up to 24 hrs by LCMS analysis; assay type: ADME, organism-based; details: in vivo
[28] = Acute toxicity in fasted male mouse assessed as death at 2 g/Kg, IG administered as single dose measured every day for 14 days; details: in vivo, po, 2000 mg/kg, 336 h, time 14 day
[29] = Acute toxicity in fasted male mouse assessed as abnormal behavior at 2 g/Kg, IG administered as single dose measured every day for 14 days; details: in vivo, po, 2000 mg/kg, 336 h, time 14 day
[30] = Acute toxicity in fasted male mouse assessed as increase in body weight at 2 g/Kg, IG administered as single dose measured every day for 14 days; details: in vivo, po, 2000 mg/kg, 336 h, time 14 day
[31] = Acute toxicity in fasted male mouse assessed as pathological changes in brain at 2 g/Kg, IG administered as single dose measured after 14 days by HE staining based assay; assay type: tissue-based; details: in vivo, po, 2000 mg/kg, 336 h, time 14 day
[32] = Acute toxicity in fasted male mouse assessed as pathological changes in heart at 2 g/Kg, IG administered as single dose measured after 14 days by HE staining based assay; assay type: tissue-based; details: in vivo, po, 2000 mg/kg, 336 h, time 14 day
[33] = Acute toxicity in fasted male mouse assessed as pathological changes in liver at 2 g/Kg, IG administered as single dose measured after 14 days by HE staining based assay; assay type: tissue-based; details: in vivo, po, 2000 mg/kg, 336 h, time 14 day
[34] = Acute toxicity in fasted male mouse assessed as pathological changes in spleen at 2 g/Kg, IG administered as single dose measured after 14 days by HE staining based assay; assay type: tissue-based; details: in vivo, po, 2000 mg/kg, 336 h, time 14 day
[35] = Acute toxicity in fasted male mouse assessed as pathological changes in lung at 2 g/Kg, IG administered as single dose measured after 14 days by HE staining based assay; assay type: tissue-based; details: in vivo, po, 2000 mg/kg, 336 h, time 14 day
[36] = Acute toxicity in fasted male mouse assessed as pathological changes in kidney at 2 g/Kg, IG administered as single dose measured after 14 days by HE staining based assay; assay type: tissue-based; details: in vivo, po, 2000 mg/kg, 336 h, time 14 day
[37] = Acute toxicity in fasted female mouse assessed as death at 2 g/Kg, IG administered as single dose measured every day for 14 days; details: in vivo, po, 2000 mg/kg, 336 h, time 14 day
[38] = Acute toxicity in fasted female mouse assessed as abnormal behavior at 2 g/Kg, IG administered as single dose measured every day for 14 days; details: in vivo, po, 2000 mg/kg, 336 h, time 14 day
[39] = Acute toxicity in fasted female mouse assessed as increase in body weight at 2 g/Kg, IG administered as single dose measured every day for 14 days; details: in vivo, po, 2000 mg/kg, 336 h, time 14 day
[40] = Acute toxicity in fasted female mouse assessed as pathological changes in brain at 2 g/Kg, IG administered as single dose measured after 14 days by HE staining based assay; assay type: tissue-based; details: in vivo, po, 2000 mg/kg, 336 h, time 14 day
[41] = Acute toxicity in fasted female mouse assessed as pathological changes in heart at 2 g/Kg, IG administered as single dose measured after 14 days by HE staining based assay; assay type: tissue-based; details: in vivo, po, 2000 mg/kg, 336 h, time 14 day
[42] = Acute toxicity in fasted female mouse assessed as pathological changes in liver at 2 g/Kg, IG administered as single dose measured after 14 days by HE staining based assay; assay type: tissue-based; details: in vivo, po, 2000 mg/kg, 336 h, time 14 day
[43] = Acute toxicity in fasted female mouse assessed as pathological changes in spleen at 2 g/Kg, IG administered as single dose measured after 14 days by HE staining based assay; assay type: tissue-based; details: in vivo, po, 2000 mg/kg, 336 h, time 14 day
[44] = Acute toxicity in fasted female mouse assessed as pathological changes in lung at 2 g/Kg, IG administered as single dose measured after 14 days by HE staining based assay; assay type: tissue-based; details: in vivo, po, 2000 mg/kg, 336 h, time 14 day
[45] = Acute toxicity in fasted female mouse assessed as pathological changes in kidney at 2 g/Kg, IG administered as single dose measured after 14 days by HE staining based assay; assay type: tissue-based; details: in vivo, po, 2000 mg/kg, 336 h, time 14 day

SMILES: Cc1cc(-c2cnc(C#N)nc2)cc(C)c1Nc1ccnc(Nc2ccc(C#N)cc2)n1
- EC50 [1]: 2 nM
- CC50 at 120 h [2]: 3100 nM
- selectivity ratio [3]: 1550
- EC50 [4]: 8.1 nM
- EC50 [5]: 42 nM
- EC50 [6]: 5.9 nM
- EC50 [7]: 766 nM
- EC50 [8]: 65 nM
- EC50 [9]: 631 nM
- EC50 [10]: 44 nM
- IC50 [11]: 39.5 nM

SMILES: Cc1cc(-c2ccncc2)cc(C)c1Nc1ccnc(Nc2ccc(C#N)cc2)n1.Cl
- solubility at 24 h [12]: 584 µg/mL
- solubility at 24 h [13]: 9.1 µg/mL
- solubility at 24 h [14]: 9 µg/mL
- IC50 (Cytochrome P450 1A2): > 30000 nM
- IC50 (Cytochrome P450 2C9): 17000 nM
- IC50 (Cytochrome P450 2C19): 6800 nM
- IC50 (Cytochrome P450 2D6): > 30000 nM
- IC50 [15]: 20000 nM
- IC50 [16]: 21000 nM
- AUC(0-t) at 24 h [17]: 835 ng·h/mL
- AUC(0-t) at 24 h [18]: 285 ng·h/mL
- AUC(0-inf) [19]: 861 ng·h/mL
- AUC(0-inf) [20]: 290 ng·h/mL
- MRT inf [21]: 2.1 h
- MRT inf [22]: 0.48 h
- half-life [23]: 2.2 h
- half-life [24]: 0.36 h
- Tmax [25]: 1 h
- Cmax [26]: 365 ng/mL
- bioavailability [27]: 59.4%
- Activity [28]: Non-Toxic
- Activity [29]: Non-Toxic
- Activity [30]: Toxic
- Activity [31]: Non-Toxic
- Activity [32]: Non-Toxic
- Activity [33]: Non-Toxic
- Activity [34]: Non-Toxic
- Activity [35]: Non-Toxic
- Activity [36]: Non-Toxic
- Activity [37]: Non-Toxic
- Activity [38]: Non-Toxic
- Activity [39]: Toxic
- Activity [40]: Non-Toxic
- Activity [41]: Non-Toxic
- Activity [42]: Non-Toxic
- Activity [43]: Non-Toxic
- Activity [44]: Non-Toxic
- Activity [45]: Non-Toxic
